Assay results: patent US6432711B1, “Embryonic stem cells capable of differentiating into desired cell lines” (Diacrin, Inc., priority 1993, dated 2002)

Columns and labels:
Type in all cases: cell-based
[1] = test system: D3 and E14 TG2a embryonic stem cell lines transfected with mouse MyoD cDNA; test: Differentiation of MyoD-transfected embryonic stem cell lines into muscle after dimethylsulfoxide induction
Procedure: For transfection of embryonic stem cells with mouse MyoD cDNA, both the D3 (ATCC catalog no. CRL 1934) and E14 TG2a (ATCC catalog no. CRL 1821) embryonic stem cell lines were used. Embryonic stem cells were cultured as described in Robertson, 1987, except that the cells were maintained in media containing 5 ng/ml human recombinant leukemia inhibitory factor instead of on feeder layers.
Embryonic stem cells were co-transfected with pKJ1-Neo (Dinsmore, et al., Cell, Vol. 64, pgs. 817-826 (1991)), which carries the neomycin resistance gene for selection of stable transfectants, and with pEMCII (Davis, et al., Cell, Vol. 51, pgs. 987-1000 (1987)), which contains a portion of the mouse MyoD cDNA. pKJ1-Neo was linearized at the unique NsiI site and pEMCII was linearized at the unique ScaI site. In order to introduce the linearized plasmids into the embryonic stem cells, the embryonic stem cells were electroporated using a Gene Pulser (Bio Rad) in 0.4 cm gap distance electroporation cuvettes with the Gene Pulser set at 240 volts, 500μ Farads. […]
Stable transfectants were isolated, expanded, frozen, and then stored in liquid nitrogen. […] The percentage of cells that differentiated into skeletal muscle was greater than 90% as assessed by staining for muscle specific myosin, and by the ability of these cells to fuse and form myotubes that spontaneously twitch. […]

[2] = test system: embryonic stem cells (ES-D3); test: Differentiation of embryonic stem cell aggregates into contracting muscle cells by dimethylsulfoxide induction; details: 1% (by volume) dimethylsulfoxide in DMEM plus 10% horse serum, aggregates cultured 5 days in multi-well dishes
Excerpt: Undifferentiated embryonic stem cells (ES-D3, purchased from the American Type Culture Collection as ATCC catalog no. ATCC CRL 1934) are maintained in supplemented Dulbecco's modified Minimal Essential Medium as described in Example 1. The embryonic stem cells then are trypsinized and washed free of LIF and placed in 1% (by volume) dimethylsulfoxide in DMEM plus 10% horse serum. Two days after the addition of dimethylsulfoxide and plating of cells in Petri dishes to form aggregates, the aggregates are collected and resuspended in fresh medium plus 1% dimethylsulfoxide. The aggregates are then plated onto multi-well untreated culture grade dishes without trypsin treatment. One aggregate is plated per well. The aggregates are cultured for 5 days. Upon culturing of the cells in multi-well dishes, cell cultures in which greater than 80% of the aggregates contain contracting muscle cells are obtained. Such cells may be used to treat cardiomyopathies, myocardial infarction, congestive heart failure, or muscular dystrophy.

[3] = test system: embryonic stem cells (ES-E14TG2a); test: Differentiation of embryonic stem cells into neuronal cells by retinoic acid induction; details: 0.5 μM retinoic acid, aggregates induced four days in DMEM plus 10% FBS, then cultured 5 days in stem cell medium on poly-D-lysine
Excerpt: Undifferentiated embryonic stem cells (ES-E14TG2a, purchased from the American Type Culture Collection, catalog no. ATCC CRL 1821) are maintained in Dulbecco's modified Minimal Essential Medium (DMEM) supplemented with glutamine, β-mercaptoethanol, 10% (by volume) horse serum, and human recombinant Leukemia Inhibitory Factor (LIF). The LIF replaces the need for maintaining embryonic stem cells on feeder layers of cells, and is essential for maintaining embryonic stem cells in an undifferentiated state.
In order to promote the differentiation of the embryonic stem cells into neuronal cells, the embryonic stem cells are trypsinized and washed free of LIF, and placed in DMEM supplemented with 10% (by volume) fetal bovine serum (FBS). After resuspension in DMEM and 10% FBS, 1×10^6 cells are plated in 5 ml DMEM plus 10% FBS plus 0.5 μM retinoic acid in a 60 mm Fisher brand bacteriological grade Petri dish. In such Petri dishes, embryonic stem cells cannot adhere to the dish, and instead adhere to each other, thus forming small aggregates of cells. Aggregation of cells aids in enabling proper cell differentiation. After two days, aggregates of cells are collected and resuspended in fresh DMEM plus 10% FBS plus 0.5 μM retinoic acid, and replated in Petri dishes for an additional two days. […]

| SMILES | cell types obtained after induction ([1]; MyoD transformants expressing very low amounts of MyoD, indistinguishable from non-transfected embryonic stem cells) | percentage of cells that differentiated into skeletal muscle ([1]; cell lines expressing high amounts of MyoD, staining for muscle specific myosin, fusion into twitching myotubes) | percentage of aggregates that contain contracting muscle cells [2] | percentage of cells in the culture that are neuronal cells [3] |
| --- | --- | --- | --- | --- |
| C[S+](C)[O-] [dimethylsulfoxide] | mix of cardiac, smooth, and skeletal muscle | greater than 90% | greater than 80% |  |
| CC1=C(/C=C/C(C)=C/C=C/C(C)=C/C(=O)O)C(C)(C)CCC1 [retinoic acid] |  |  |  | greater than 90% |
